The record followed here is the OPERA property sets (Mansouri et al. 2018).

Values after ≈ are worked out from the molar mass of the structure shown.

Settings in the first data set: not given
For orientation: solubility means the concentration that dissolves in the medium under given conditions. Higher therefore signals much dissolved substance. As to `COc1coc(CSP(=O)(OC)OC)cc1=O`, the solubility is 5350 mM (≈ 1500 mg/mL).

For `CCOc1ccc2nc(S(N)(=O)=O)sc2c1`, the solubility is 0.155 mM (≈ 0.04 mg/mL). With `CC=CCCl`, the solubility stood at 11 mM (≈ 1 mg/mL). In turn, `CN(C)C(=O)OC1=CC(=O)CC(C)(C)C1` came in with a solubility of 142 mM (≈ 30 mg/mL).

`O=C(OCC(O)CO)c1ccccc1Nc1ccnc2cc(Cl)ccc12` (stereo not given) showed a solubility of 107 mM (≈ 40 mg/mL).

The data set is the same for the next values; noted with them: 20 °C.
`O=Cc1ccc2c(c1)OCO2` returned a solubility of 23.3 mM (≈ 3.5 mg/mL). For `CC(=O)CC1CCCCN1` (stereo not given), the solubility is 354 mM (≈ 50 mg/mL). This solubility is about 15-fold higher than that of the molecule before. As for `CCC1CCCCC1`, the solubility worked out at 0.0561 mM (≈ 0.0063 mg/mL). Molecule `O=C(O)c1cnc(O)nc1O` came in with a solubility of 11.5 mM (≈ 1.8 mg/mL). Molecule `c1ccc2c(c1)cnc1ccccc12` came in with a solubility of 1.67 mM (≈ 0.3 mg/mL). Same read-out and setting: in the case of `C=CC1CN2CCC1CC2C(=O)c1ccnc2ccc(OC)cc12` (stereo not given) it was 0.0093 mM (≈ 0.003 mg/mL). In turn, `OCCN(CCO)c1ccccc1` gave a solubility of 184 mM (≈ 33.4 mg/mL). Turning to `Clc1cc2c(cc1Cl)Oc1c(Cl)c(Cl)c(Cl)c(Cl)c1O2`, the solubility is 1.13e-08 mM (≈ 4.4e-09 mg/mL). That is a picomolar value. On the same count and under the same terms, in the case of `N#CCC(N)=O` it was 1550 mM (≈ 130 mg/mL); in that of `Clc1ccc(Cl)c(-c2cc(Cl)c(Cl)c(Cl)c2Cl)c1`, 2.09e-05 mM (≈ 7.55e-06 mg/mL); in that of `CC(C)I`, 8.24 mM (≈ 1.4 mg/mL).

`C[C@H](CCC(=O)NCC(=O)O)[C@H]1CC[C@H]2[C@@H]3[C@H](O)C[C@@H]4C[C@H](O)CC[C@]4(C)[C@H]3C[C@H](O)[C@]12C` showed a solubility of 0.00709 mM (≈ 0.0033 mg/mL). In the case of `C=C(C(=O)O)c1ccccc1`, the solubility is 8.77 mM (≈ 1.3 mg/mL).

The molecule `O=C(Nc1ccccc1)c1ccccc1I` had a solubility of 0.0619 mM (≈ 0.02 mg/mL). Compared with the last molecule, the solubility is about 140-fold lower. The molecule `CC1CCCC(=O)C1` (stereo not given) had a solubility of 13.4 mM (≈ 1.5 mg/mL). `CC(=NO)C(C)=NO` returned a solubility of 5.17 mM (≈ 0.6 mg/mL).

Molecule `N[C@@H](Cc1ccc(O)c(O)c1)C(=O)O` had a solubility of 25.4 mM (≈ 5 mg/mL).

The molecule `CCCI` came in with a solubility of 6.3 mM (≈ 1.07 mg/mL).

`Clc1cc(Cl)c(-c2c(Cl)c(Cl)cc(Cl)c2Cl)cc1Cl` returned a solubility of 1.14e-05 mM (≈ 4.51e-06 mg/mL). `FC(F)(F)c1cccc(C(c2ccccc2)(c2ccccc2)n2cncn2)c1` returned a solubility of 3.95e-06 mM (≈ 1.5e-06 mg/mL). Still for that read-out and setting: the result for `Clc1cc(-c2cccc(Cl)c2Cl)cc(Cl)c1Cl` reads 3.93e-05 mM (≈ 1.28e-05 mg/mL).

Staying with this data set, now noted: 22 °C.
Molecule `CC(=O)c1ccc(O)cc1` came in with a solubility of 72.7 mM (≈ 9.9 mg/mL). This lies in the millimolar range. Regarding `CCC1(c2ccccc2)C(=O)NCNC1=O`, the solubility was 2.29 mM (≈ 0.5 mg/mL). `COC(=O)[C@@H]1C2CCC(C[C@@H]1OC(=O)c1ccccc1)N2C` (stereo not given in full) yielded a solubility of 5.93 mM (≈ 1.8 mg/mL).

Still in this data set, the particulars now being: 23 °C.
As for `O=c1[nH]cnc2nc[nH]c12`, the solubility was found to be 5.14 mM (≈ 0.7 mg/mL).

In turn, `O=C1C(Cl)=C(NC(=O)C(Cl)Cl)C(=O)c2ccccc21` gave a solubility of 0.00942 mM (≈ 0.003 mg/mL). `CC(=O)Nc1cc(NS(=O)(=O)C(F)(F)F)c(C)cc1C`: the solubility was found to be 0.58 mM (≈ 0.18 mg/mL).

The same data set, now with this note: 24 °C.
The molecule `CC(C)Oc1cc(-n2nc(C(C)(C)C)oc2=O)c(Cl)cc1Cl` returned a solubility of 0.00203 mM (≈ 0.0007 mg/mL). Molecule `CCNP(=S)(OC)O/C(C)=C/C(=O)OC(C)C` (stereo not given) displayed a solubility of 0.391 mM (≈ 0.11 mg/mL).

Staying with this data set, now noted: 25 °C.
`ClC(Cl)=C(c1ccc(Cl)cc1)c1ccccc1Cl` gave a solubility of 0.00044 mM (≈ 0.00014 mg/mL). That is a sub-micromolar value. On to `S=C=Nc1cccc(Br)c1`, for which the solubility is 0.0822 mM (≈ 0.0176 mg/mL). `O=C(O)c1cc(I)cc(I)c1O` displayed a solubility of 0.493 mM (≈ 0.192 mg/mL). This solubility lies about 6-fold higher than the previous one. Turning to `CC[C@H](O)C(C)C`, the solubility stood at 197 mM (≈ 20.1 mg/mL). In the case of `ClCC1CO1` (stereo not given), the solubility was 712 mM (≈ 65.9 mg/mL). In turn, `O=C1NC(=O)C([N+](=O)[O-])C(=O)N1` returned a solubility of 5.2 mM (≈ 0.9 mg/mL). `CC(=O)O[C@]1(C(C)=O)CC[C@H]2[C@@H]3C=C(Cl)C4=CC(=O)C=C[C@]4(C)[C@H]3CC[C@@]21C` gave a solubility of 0.0113 mM (≈ 0.00457 mg/mL). Compared with the last molecule, the solubility is about 460-fold lower.

`CCCCCCCCCCCCCC(=O)O` came in with a solubility of 0.00468 mM (≈ 0.00107 mg/mL). Turning to `O=C1NCCN1c1ncc([N+](=O)[O-])s1`, the solubility is 0.607 mM (≈ 0.13 mg/mL). `CCC1NC(=O)c2cc(S(N)(=O)=O)c(Cl)cc2N1` (stereo not given) came in with a solubility of 0.518 mM (≈ 0.15 mg/mL). This solubility and that of the molecule before are within 1.5-fold of each other. Same read-out and setting: in the case of `Clc1cccc(Cl)c1-c1c(Cl)cccc1Cl` it was 4.08e-05 mM (≈ 1.19e-05 mg/mL); in that of `O=C(O)c1cccnc1Nc1cccc(C(F)(F)F)c1`, 0.0673 mM (≈ 0.019 mg/mL); in that of `Cc1c(C(=O)O)c(O)cc2c1C(=O)c1c(O)c([C@@H]3O[C@H](CO)[C@@H](O)[C@H](O)[C@H]3O)c(O)c(O)c1C2=O`, 2.64 mM (≈ 1.3 mg/mL).

Molecule `c1ccc2c(c1)Nc1ccccc1S2` came in with a solubility of 0.00798 mM (≈ 0.00159 mg/mL). On to `Brc1ccc(Br)cc1`, for which the solubility is 0.0848 mM (≈ 0.02 mg/mL). As to `COc1c2occc2c(OC)c2c(=O)cc(C)oc12`, the solubility was found to be 4 mM (≈ 1.04 mg/mL). `OCc1ccccc1` gave a solubility of 370 mM (≈ 40 mg/mL).

The molecule `Clc1cc(Cl)c(Cl)c(-c2c(Cl)c(Cl)cc(Cl)c2Cl)c1Cl` registered a solubility of 3.42e-07 mM (≈ 1.47e-07 mg/mL). The molecule `Clc1cc(Cl)c2c(c1Cl)Oc1ccccc1O2` gave a solubility of 2.92e-05 mM (≈ 8.41e-06 mg/mL). Still for that read-out and setting: in the case of `C1=CCCCCC1` it was 0.686 mM (≈ 0.066 mg/mL); in that of `O=C(O)c1cc(Cl)ccc1[N+](=O)[O-]`, 48 mM (≈ 9.67 mg/mL). In turn, `CCCCCCCI` showed a solubility of 0.0155 mM (≈ 0.0035 mg/mL).

`COc1ccc(C=O)cc1` showed a solubility of 31.5 mM (≈ 4.29 mg/mL). Against the preceding molecule, the solubility is about 2000-fold higher. `CC1CCC(C(C)C)C(O)C1` (stereo not given): the solubility stood at 2.91 mM (≈ 0.455 mg/mL).

The molecule `Cc1cccc(O)c1C` registered a solubility of 37.4 mM (≈ 4.57 mg/mL). In the case of `COc1ccc2c(c1)N(C[C@H](C)CN(C)C)c1ccccc1S2`, the solubility turned out to be 0.0609 mM (≈ 0.02 mg/mL). For the molecule `CCCCCCCCCc1ccc(O)cc1`, the solubility turned out to be 0.0318 mM (≈ 0.007 mg/mL). `C=CCC(C)C` came in with a solubility of 0.57 mM (≈ 0.048 mg/mL). Consider `Clc1ccccc1-c1c(Cl)cc(Cl)c(Cl)c1Cl`, for which the solubility amounted to 3.68e-05 mM (≈ 1.2e-05 mg/mL). The molecule `Cc1ccc(N=C=S)cc1` returned a solubility of 0.019 mM (≈ 0.00283 mg/mL). For the molecule `COC(=O)C(=O)OC`, the solubility was 511 mM (≈ 60.3 mg/mL). Turning to `CCCC(C)CC` (stereo not given), the solubility was 0.0494 mM (≈ 0.00495 mg/mL).

Turning to `Clc1cccc(Cl)c1-c1ccccc1`, the solubility is 0.0108 mM (≈ 0.00241 mg/mL).

For the molecule `c1ccc2c(c1)OCCOCCOc1ccccc1OCCOCCO2`, the solubility was 0.0203 mM (≈ 0.0073 mg/mL). Molecule `CCCCC(C)CC` (stereo not given) gave a solubility of 0.00693 mM (≈ 0.000792 mg/mL). This solubility lies about 2.9-fold lower than the previous one. Same read-out and setting: the result for `CCCCCBr` reads 0.841 mM (≈ 0.127 mg/mL); that for `C(=C\c1ccccc1)/CN1CCN(C(c2ccccc2)c2ccccc2)CC1`, 2.04 mM (≈ 0.75 mg/mL); that for `Cc1nc(N(C)C)nc(OC(=O)N(C)C)c1C`, 11.3 mM (≈ 2.7 mg/mL). The same measure, in the same setting: in the case of `Cc1c(N)c(=O)n(-c2ccccc2)n1C` it was 3580 mM (≈ 728 mg/mL); in that of `CCCC(C(=O)O)C(=O)O`, 4790 mM (≈ 700 mg/mL). In turn, `O=C(O)CCCCCCC(=O)O` came in with a solubility of 67.9 mM (≈ 11.8 mg/mL). `CCCCC=O` registered a solubility of 136 mM (≈ 11.7 mg/mL). On the same count and under the same terms, the result for `CCC(C)c1ccc(O)cc1` (stereo not given) reads 6.39 mM (≈ 0.96 mg/mL); that for `c1ccc2c(c1)Oc1ccccc1O2`, 0.00489 mM (≈ 0.000901 mg/mL); that for `Cc1ccc2cc(C)ccc2c1`, 0.0128 mM (≈ 0.002 mg/mL). The same measure, in the same setting: in the case of `Cc1ccnc2c1ccc1c(C)ccnc12` it was 0.107 mM (≈ 0.0224 mg/mL).

For the molecule `CCC(C)(C)c1ccccc1`, the solubility worked out at 0.0708 mM (≈ 0.0105 mg/mL). This solubility is about 1.5-fold lower than that of the molecule before. `CCC(C)C(C)C` (stereo not given) yielded a solubility of 0.0524 mM (≈ 0.00525 mg/mL).

Molecule `CC(=O)Nc1ccccc1` displayed a solubility of 51.3 mM (≈ 6.93 mg/mL). This solubility lies about 980-fold higher than the previous one. With `CCC(C)Cl` (stereo not given), the solubility came out at 10.8 mM (≈ 1 mg/mL). `c1cnc2c(c1)ccc1cccnc12` came in with a solubility of 14.9 mM (≈ 2.69 mg/mL).

Molecule `CCCCCCCCl` gave a solubility of 0.101 mM (≈ 0.0136 mg/mL). In turn, `CCC(C)(C)C` gave a solubility of 0.214 mM (≈ 0.0184 mg/mL). Take `CCCCc1c(C)nc(N(C)C)nc1O`: the solubility stood at 5.73 mM (≈ 1.2 mg/mL).

Still in this data set, the particulars now being: 27 °C.
The molecule `Cc1cc2ccccc2c2ccc3ccccc3c12` had a solubility of 0.000256 mM (≈ 6.2e-05 mg/mL).

The data set is the same for the next values; noted with them: 30 °C.
For the molecule `Cc1c(N(C)C)c(=O)n(-c2ccccc2)n1C`, the solubility turned out to be 235 mM (≈ 54.4 mg/mL). This lies in the millimolar range. With `ClC(Cl)Br`, the solubility turned out to be 18.5 mM (≈ 3.03 mg/mL).

Turning to `NS(=O)(=O)c1cc2c(cc1Cl)N=CNS2(=O)=O`, the solubility amounted to 0.899 mM (≈ 0.266 mg/mL). Molecule `COc1cnc(NS(=O)(=O)c2ccc(N)cc2)nc1` gave a solubility of 2.6 mM (≈ 0.73 mg/mL). `Cc1cccc(Nc2ccccc2C(=O)O)c1C`: the solubility was 0.0829 mM (≈ 0.02 mg/mL). Compared with the last molecule, the solubility is about 31-fold lower. In turn, `NCCCCCCCCCCC(=O)O` yielded a solubility of 4.97 mM (≈ 1 mg/mL).
